# Source: patent US20170081383A1, “MELANOCORTIN ANALOGS HAVING ENHANCED ACTIVITY AND TRANSPORT” (Tensive Controls Inc., priority 2012, published 2017)
# Entries after “also recorded” stand apart in the source; their conditions may differ. Positions of bridges follow the written chain, without caps; N, C: chain ends. Non-standard residues stand in square brackets, D forms with d. Residues, ends and D or L forms follow the SMILES beside them. No end group written: not given here. β2Val = β2-Val (beta2-Val), beta-amino acid; d2Nal = N[C@H](Cc1ccc2ccccc2c1)C(=O)O; β3hP = O=C(O)C[C@@H]1CCCN1; Nle = CCCC[C@H](N)C(=O)O
# Tests used:
# cachexia models = conditions: Marks et al., Cancer Res. 2001; cited from earlier work
# [1] = system: LPS-induced cachexia in rats; assay: Lipopolysaccharide (LPS)-induced cachexia assay; type: in vivo, rat; conditions: for blood-brain barrier transport (concluded from peripheral vs ICV activity) / anti-cachectic activity after ICV (IVt) administration (in words): LPS model; for food intake, 24 hours after LPS challenge / body weight (percent of pre-LPS baseline), 24 hours after LPS challenge: 0.2 mg/kg intraperitoneally; for food intake, 24 hours after LPS challenge: FIG. 8A; for body weight (percent of pre-LPS baseline), 24 hours after LPS challenge: FIG. 8B; for anti-cachectic activity after ICV (IVt) administration (in words): intracerebroventricular administration; for peripheral (IP) anti-cachexia activity, feeding (in words): peripheral / intraperitoneal administration after LPS
# Procedure: The LPS model uses rats were maintained on a 12 h light/dark schedule with ad libitum access to food and water. Animals were handled daily for a minimum of three consecutive days to decrease non-specific handling stress. On the day of the experiment, individually housed animals received intraperitoneal injections of LPS dissolved in 0.5% low-endotoxin BSA, 0.9% saline or 0.5% BSA in 0.9% saline alone, and were returned to their home cage. The drug or control was administered (ICV, IP, or PO, depending on the type of study) 1-hour after LPS injection.
# In the experiments described herein, a series of melanocortin receptor antagonist peptides were examined in a bacterial endotoxin inducing cachexia assay. For this assay, a rat is challenged with a single peripheral injection of lipopolysaccharide (LPS). LPS is a heat-stable lipo-polysaccharide, the major component of the outer membrane (capsule) of gram negative bacteria. In non-capsulated strains, it appears as a cell surface […]. LPS produces a strong immune response, including secretion of the proinflammatory cytokines Tumor Necrosis Factor α (TNFα) and interleukin-1 (IL-1). Proinflammatory cytokines are known factors that induce cachexia.
# Rats are maintained on a 12-hour light/dark cycle. Animals are handled daily for a minimum of 5 consecutive days to acclimate them to the handling required for the experiment. […] On the day of the experiment, individually housed animals receive intraperitoneal (IP) injections of LPS dissolved in 0.5% low-endotoxin BSA, 0.9% saline or 0.5% BSA in 0.9% saline alone, and returned in their home cage. Melanocortin receptor antagonist peptides were administered (IP or by gavage, depending on the type of study) one hour after the LPS injection. The extent of cachexia is measured by the reduction in food intake, measured every two hours. The cachexia typically lasts only a single day. However, rats lose up to 5% of their body weight during a 12-hour light cycle, making up this loss plus food needed for normal growth during the 12-hour dark cycle. Thus, failure to eat appropriately during a single dark cycle is determinable from the animal's weight and any changes thereof.
# A series of melanocortin receptor antagonist peptides were examined in a bacterial toxin inducing cachexia assay. In this assay, a rat was challenged with a single peripheral injection of lipopolysaccharide (LPS), a bacterial toxin that rapidly induces acute cachexia. The extent of cachexia was measured as a reduction in food intake, measured every two hours. The cachexia typically lasts only a single day.
# [2] = TCMCB07 in rat plasma and cerebrospinal fluid after IV administration (HPLC fluorescence, mass spectrometry); type: in vivo
# Procedure: Urethane-Anesthetized Rats Had Polyethylene (PE)-Tubing Cannulas Placed in their Femoral artery and vein. Each rat was then placed in a small animal stereotaxic apparatus, their head fixed in the lateral plane with ear bars, and their head placed in a 45-50° downward angle by placing their nose below an adjustable tooth bar. This position placed the animal's cistern magna at the highest vertical position of its body. The dural covering of the dorsal cistern magna was exposed.
# A stainless steel cannula, with one end attached to PE-tubing, was placed in a stereotaxic tower cannula holder (open end down). The free end of the PE-tubing was attached to a 100 μL gas-tight Hamilton syringe with a 28-gauge needle. The cannula was adjusted to a position that approximated the middle of the exposed cistern magna, and the cannula lowered until it touched the dura mater. […] The dura has a degree of flexibility such that the cannula can depress it before it pierces it. After it was pierced, the dural rises to its original position, placing the cannula tip within the cistern magna space. The position of the cannula tip was again noted on the vertical axis of the tower. Typically, the cannula tip was 1.6-1.8 mm below the original dura-touch position. The cannula tip was then adjusted, if needed, to 1.8 mm below the dura, and the cannula sealed to the dura using skin glue. Samples of cisternal cerebrospinal (CSF) fluid were removed through cannula and PE-tubing by slowly drawing on the Hamilton syringe.
# For the experimental procedure, baseline samples of blood and CSF were taken (“0” time points), followed by the IV administration of 750 nmol/kg TCMCB07. Samples of CSF (50 μL) and blood (1 mL) were collected at the following time points: 0, 5, 15, 30, and 90 minutes. […] Both CSF and plasma were stored at −80° C. until analyzed by (HPLC) with spectrofluoremetric monitoring at 230 nm excitation and […] emission (the fluorescence maximum for the Nal residue). […]
# Lewis sarcoma rat = assay: Reversal of cachexia-induced lethargy; type: in vivo; conditions: once-daily peripheral dosing for 48 hours (2 IP doses), irrespective of tumor load
# Excerpt: In animals and humans, cachexia produces “lethargy,” i.e., the aversion to activity. Grossberg et al., J. Neurosci. 31(31): 11376-11386. […] This therapeutic effect is dependent on a stabilized melanocortin antagonist C-terminal extension. Video recordings characterized control animal behavior as neo-exploratory movement about the cage, i.e., repeated “sniffing” the air to presumably sample odors (e.g., neighboring animals), grooming, and intermittent bouts of eating and drinking. Caldecott-Hazard et al., J. Neurosci. 8(6): 1951-1961 (1988).
# The animal typically remains in one position for an extended period of time (>1 minute). Occasionally it will change position, assuming the new position for an extended period. The rats show no grooming behavior, evident in the appearance of their coat and eyes.
# [3] = system: urethane-anesthetized rats; assay: Cardiovascular activity of melanocortin peptides (MAP, heart rate, ECG)
# Procedure: These studies were performed in urethane-anesthetized rats, since anesthesia is required for six-lead ECG monitoring. […] Initial selection of doses was guided by FDA exploratory IND studies with a recommendation for at least a 100-fold excess of the human dose.
# Lewis sarcoma rat model = Lewis sarcoma rat model of cancer cachexia; type: in vivo
# Procedure: This sarcoma is an aggressive form of cancer that produces significant cachexia. Popp et al., Cancer 49(6): 1212-1220 (1982). In the protocol, “treatment” began 8-days after tumor implantation, with a significant decrease in food intake from baseline. Body composition was determined by NMR prior to tumor implantation, and on the final day of the experiment after tumor resection, by ECHO MRI (NMR). Tumor implantation produces cachexia on or about the 6th day. Melanocortin drug therapy or saline was begun after day 8 and continued through day 12.
# Prior to tumor implantation, both groups (drug or saline) had similar food intake (˜14 g/day). See FIGS. 2A and B. After tumor implantation, in saline-treated/tumor bearing controls, food intake decreased 35% to 9 g/day by day 8. FIGS. 3A-F. However, treatment with TCMCB01 reversed anorexia to a food intake similar to the control state.
compound,measurement,setting,value
"AGRP: endogenous melanocortin system inhibitor (agouti-related protein); naturally occurring melanocortin antagonist protein (SSRRCVRLHESCLGQQVPCCDPCATCYCRFFNAFCYCRKLGTAMNPCSRT; ends and bridges not checked; cysteine pairing not given here; UniProt O00253 83-132, looked up)",reversal of cachexia-anorexia syndrome,cachexia models,100%
"CCCC[C@H](NC(C)=O)C(=O)N[C@H]1CC(=O)NCCCC[C@@H](C(=O)N[C@@H](C(=O)N2CCC[C@@H]2C(N)=O)C(C)C)NC(=O)[C@H](Cc2c[nH]c3ccccc23)NC(=O)[C@H](CCCN=C(N)N)NC(=O)[C@@H](Cc2ccc3ccccc3c2)NC(=O)[C@@H]2CCCN2C1=O [TCMCB07, Ac-Nle-c[Asp-Pro-D-Nal(2′)-Arg-Trp-Lys]-D-Val-D-Pro-NH2] (Ac-[Nle]DP[d2Nal]RWK[dV][dP]-NH2; lactam 2-7)",blood-brain barrier transport (concluded from peripheral vs ICV activity),[1],both gastrointestinal and blood-brain barrier transport
same,proposed metabolite peak (retention time 12.9 minutes) in CSF,"[2]; 5 and 30 minutes post IV 750 nmol/kg, peak height",peak height increases over time; also recorded: increased cerebrospinal fluid concentration
same,transport through the blood-brain-barrier (physical evidence),[2]; IV 750 nmol/kg,direct physical evidence of TCMCB07 transport through the blood-brain-barrier
same,presence in CSF by mass spectrometry of HPLC effluent,"[2]; after IV 750 nmol/kg, no obvious Nal-fluorescence peak",confirmed the presence of TCMCB07 in CSF
Ac-Nle-c[Asp-Pro-D-Nal(2′)-Arg-Trp-Lys]-β^3-Pro-β^2-Val-NH2 (Ac-[Nle]DP[d2Nal]RWK[β3hP][β2Val]-NH2; lactam 2-7) [TCMCB05],"food intake, 24 hours after LPS challenge",[1],stimulated appetites
same,"body weight (percent of pre-LPS baseline), 24 hours after LPS challenge",[1],significantly gained weight
same,molar activity relative to TCMCB02,"[1]; ICV administration, LPS-induced cachexia",10 fold
same,anti-cachectic activity after ICV (IVt) administration (in words),[1],molar activity equivalent to TCMCB02
same,"peripheral (IP) anti-cachexia activity, feeding (in words)",[1],had IP anti-cachexia activity; also recorded: had peripheral anti-cachexia activity; also recorded: Only TCMCB07 produced a significant increase in feeding
same,behavior of cachectic (lethargic) rats,Lewis sarcoma rat,restored “normal” behavior to rats
"CCCC[C@H](NC(C)=O)C(=O)N[C@H]1CC(=O)NCCCC[C@@H](C(=O)N[C@@H](C(=O)N2CCC[C@@H]2C(N)=O)C(C)C)NC(=O)[C@H](Cc2c[nH]c3ccccc23)NC(=O)[C@H](CCCNC(=N)N)NC(=O)[C@@H](Cc2ccc3ccccc3c2)NC(=O)[C@@H]2CCCN2C1=O [TCMCB07, Ac-Nle-c[Asp-Pro-D-Nal(2′)-Arg-Trp-Lys]-D-Val-D-Pro-NH2] (Ac-[Nle]DP[d2Nal]RWK[dV][dP]-NH2; lactam 2-7)","food intake, 24 hours after LPS challenge",[1],stimulated appetites
same,"body weight (percent of pre-LPS baseline), 24 hours after LPS challenge",[1],significantly gained weight
same,peripheral (IP) LPS anti-cachectic activity relative to TCMCB02,[1]; IP,10 fold
same,oral activity / gastrointestinal transport (in words),"[1]; gavage (intra-gastric) administration, LPS cachexia",significant enhancement of food intake
same,anti-cachectic activity after ICV (IVt) administration (in words),[1],maintained ICV activity
same,"peripheral (IP) anti-cachexia activity, feeding (in words)",[1],equivalent stimulation of feeding; also recorded: significant increase in feeding
same,activity following peripheral administration relative to TCMCB02,[1]; peripheral administration,about 10 times
same,behavior of cachectic (lethargic) rats,Lewis sarcoma rat,restored “normal” behavior to rats
Ac-Nle-c[Asp-Pro-D-Nal(2′)-Arg-Trp-Lys]-D-Thr-D-Pro-D-Thr (Ac-[Nle]DP[d2Nal]RWK[dT][dP][dT]; lactam 2-7) [TCMCB01],blood-brain barrier transport (concluded from peripheral vs ICV activity),[1],insufficient blood brain barrier-transport; also recorded: no blood-brain barrier transport
same,"anti-cachectic activity compared to the parent compound, PG932",[1]; Lewis sarcoma rat model and LPS model,enhanced anti-cachectic activity
same,anti-cachectic activity after ICV (IVt) administration (in words),[1],only produced an anti-cachexia effect when given by IVt administration
same,"peripheral (IP) anti-cachexia activity, feeding (in words)",[1],did not have peripheral activity
same,Duration,"[3]; 600 nmol, n = 5",0 min
same,Peak Heart Rate Response (BPM),"[3]; 600 nmol, n = 5",0/0 BPM
same,Peak MAP Response (Δ mm Hg),"[3]; 600 nmol, n = 5",0/0 mm Hg
same,cardiovascular and behavioral side effects (in words),[3]; rats,no cardiovascular or dose-limiting behavioral side effects; also recorded: little cardiovascular activity
same,reversal of cachexia-anorexia (food intake),"Lewis sarcoma rat model; ICV, one time per day, 2 nmol, after day 8 through day 12",reversed the cachexia-anorexia of the tumor burden
same,dose producing the feeding effect relative to that used with previous synthetic melanocortin antagonists,Lewis sarcoma rat model; Lewis model,one tenth
same,body weight after tumor implantation,"Lewis sarcoma rat model; drug treated group vs saline controls, FIG. 4",significantly greater than saline controls
same,tumor weight,"Lewis sarcoma rat model; equivalent in saline-treated and drug-treated group (p=0.2), FIG. 5",~40 g
same,anti-cachectic response compared with AGRP and SHU9119,"Lewis sarcoma rat model; food intake, Lewis sarcoma rats, FIG. 3","as potent as the natural melanocortin system inhibitor Agouti Related Protein (AGRP), and significantly more potent than SHU9119; also recorded: equivalent to AGRP"
same,anti-cachectic effect greater than AGRP,"Lewis sarcoma rat model; related study (not shown), Lewis model",~20%
same,lean body mass (NMR after tumor excision),"Lewis sarcoma rat model; statistical significance only p=0.05, FIG. 6",increased lean body mass
